Results on 3 compounds are retold here after ChEMBL document CHEMBL3045012, “Quinoline-based azetidinone and thiazolidinone analogues as antimicrobial and antituberculosis agents” (2013).

In brackets after ≈: the same amount, converted by molar mass. Bounds are passed on as bounds.

In general, MIC refers to the lowest concentration that inhibits growth of the organism.

Assay type in all cases: functional
The test system of test [1] is Candida albicans. Briefly: Antimicrobial activity against Candida albicans MTCC 183 assessed as diameter of growth inhibition zone after 24 hr by paper disk diffusion technique.
Test [2] concerns Aspergillus niger. As to the kind of experiment: Antimicrobial activity against Aspergillus niger MTCC 282 assessed as growth inhibition after 48 hr by agar streak dilution technique. The note with it: MTCC 282, 48 h.
In test [3] the test system is Escherichia coli. As to the kind of experiment: Antimicrobial activity against Escherichia coli MTCC 739 assessed as growth inhibition after 24 hr by agar streak dilution technique. The note with it: MTCC 739, 24 h.
In test [4] the test system is Aspergillus niger. As to the kind of experiment: Antimicrobial activity against Aspergillus niger MTCC 282 assessed as diameter of growth inhibition zone after 24 hr by paper disk diffusion technique. For orientation: A growth-free zone around the sample is the usual read-out of agar diffusion tests.
The test system of test [5] is Escherichia coli. As to the kind of experiment: Antimicrobial activity against Escherichia coli MTCC 739 assessed as diameter of growth inhibition zone after 24 hr by paper disk diffusion technique.
In test [6] the test system is Pseudomonas aeruginosa. As to the kind of experiment: Antimicrobial activity against Pseudomonas aeruginosa MTCC 741 assessed as growth inhibition after 24 hr by agar streak dilution technique. To be noted: MTCC 741, 24 h.
The test system of test [7] is Staphylococcus aureus. Briefly: Antimicrobial activity against Staphylococcus aureus MTCC 96 assessed as diameter of growth inhibition zone after 24 hr by paper disk diffusion technique.
Test [8] deals with Staphylococcus aureus. As to the kind of experiment: Antimicrobial activity against Staphylococcus aureus MTCC 96 assessed as growth inhibition after 24 hr by agar streak dilution technique. The note with it: MTCC 96, 24 h.
The subject of test [9] is Bacillus subtilis. Briefly: Antimicrobial activity against Bacillus subtilis MTCC 430 assessed as diameter of growth inhibition zone after 24 hr by paper disk diffusion technique.
Test [10] deals with Mycobacterium tuberculosis. Briefly: Antituberculosis activity against Mycobacterium tuberculosis H37Rv assessed as growth inhibition after 12 to 28 days by L-J MIC method. The note with it: for MIC: Mycobacterium tuberculosis, H37Rv.
The test system of test [11] is Candida albicans. Briefly: Antimicrobial activity against Candida albicans MTCC 183 assessed as growth inhibition after 48 hr by agar streak dilution technique. The note with it: MTCC 183, 48 h.
In test [12] the test system is Pseudomonas aeruginosa. As to the kind of experiment: Antimicrobial activity against Pseudomonas aeruginosa MTCC 741 assessed as diameter of growth inhibition zone after 24 hr by paper disk diffusion technique.
In test [13] the test system is Bacillus subtilis. Briefly: Antimicrobial activity against Bacillus subtilis MTCC 430 assessed as growth inhibition after 24 hr by agar streak dilution technique. To be noted: MTCC 430, 24 h.

In the case of `Cc1cnc(N2C(=O)C(Cl)C2c2cc3ccccc3nc2Cl)s1` (configuration not stated), the “diameter of the inhibition zone (DIZ)” value in the test on Candida albicans [1] amounted to 23 mm; with Aspergillus niger [4] it was 23 mm; in the test with Escherichia coli [5], 24 mm; with Staphylococcus aureus [7], 23 mm; with Bacillus subtilis [9], 21 mm; in the test with Pseudomonas aeruginosa [12], 21 mm. Further, the MIC worked out at 62.5 µg/mL (≈ 172 µM) in the test with Aspergillus niger [2]; 25 µg/mL (≈ 68.6 µM) in the test with Escherichia coli [3]; 50 µg/mL (≈ 137 µM) in the test on Pseudomonas aeruginosa [6]; 50 µg/mL (≈ 137 µM) in the test on Staphylococcus aureus [8]; 12.5 µg/mL (≈ 34.3 µM) in test [10]; 100 µg/mL (≈ 275 µM) in the test on Candida albicans [11]. In the test with Bacillus subtilis [13], the MIC is 50 µg/mL (≈ 137 µM). Also, the “growth inhibition (GI)” value in test [10] is given as 99%.

Consider `O=C1C(Cl)C(c2cc3ccccc3nc2Cl)N1c1ccccc1[N+](=O)[O-]` (configuration not stated), for which the “diameter of the inhibition zone (DIZ)” value in the test with Candida albicans [1] is listed as 20 mm; in the test with Aspergillus niger [4], 22 mm; with Escherichia coli [5], 22 mm; in the test on Staphylococcus aureus [7], 20 mm; in the test with Bacillus subtilis [9] it was 21 mm; in the test on Pseudomonas aeruginosa [12], 21 mm. Moreover, the MIC came to 50 µg/mL (≈ 129 µM) in the test on Aspergillus niger [2]; 100 µg/mL (≈ 258 µM) with Escherichia coli [3]; 62.5 µg/mL (≈ 161 µM) in the test with Pseudomonas aeruginosa [6]; 100 µg/mL (≈ 258 µM) in the test on Staphylococcus aureus [8]; 250 µg/mL (≈ 644 µM) in test [10]; 100 µg/mL (≈ 258 µM) in the test on Candida albicans [11]. Also, the MIC in the test with Bacillus subtilis [13] is 62.5 µg/mL (≈ 161 µM). Also, the “growth inhibition (GI)” value in [10] was determined as 92%.

On to `O=C1CSC(c2cc3ccccc3nc2Cl)N1c1ccccc1` (configuration not stated), for which the “diameter of the inhibition zone (DIZ)” value in the test on Candida albicans [1] was less than 10 mm; with Aspergillus niger [4] it was 14 mm; in the test with Escherichia coli [5], less than 10 mm; in the test on Staphylococcus aureus [7], 17 mm; with Bacillus subtilis [9] it was less than 10 mm; in the test with Pseudomonas aeruginosa [12], 13 mm. The MIC with Aspergillus niger [2] was found to be 100 µg/mL (≈ 293 µM); in the test with Escherichia coli [3], 100 µg/mL (≈ 293 µM); in the test with Pseudomonas aeruginosa [6] it was 100 µg/mL (≈ 293 µM); with Staphylococcus aureus [8], 100 µg/mL (≈ 293 µM); in [10], 250 µg/mL (≈ 733 µM); in the test with Candida albicans [11], 100 µg/mL (≈ 293 µM). Further, in the test with Bacillus subtilis [13], the MIC is 100 µg/mL (≈ 293 µM). Also, in test [10], the “growth inhibition (GI)” value is reported as 92%.
